Read-outs that look alike come from different tables or passages of the source.
What was measured:
SREBP pathway = assay: SREBP luciferase reporter gene system (SRE-luciferase assay); type: cell-based, human; details: Huh-7/SRE-luc cells, sterol-deficient medium, 0.01-10 µM
Summary of the method: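 Readout was SRE-driven luciferase normalised to GFP fluorescence in lysates of stably transfected Huh-7/SRE-luc hepatoma cells. Compounds (0.01, 0.03, 0.1, 0.3, 1.0, 3.0, 10 µM; DMSO control) were applied for 16 h in sterol-depleted medium with 2 µM lovastatin and 10 µM mevalonate; IC50 from variable-slope fit.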

[1] = tested on: Fatty Acid Synthase (FASN) gene; assay: Inhibition of FASN gene expression (qPCR) in Huh-7 cells; type: cell-based, human; details: Huh-7 cells, starvation medium, 16 hours, qPCR, class symbols, read-out: FASN IC50
Method: Huh-7 cells (purchased from ATCC) were cultured in DMEM medium (containing 10% fetal bovine serum LONSERA S711-001S) at 37°C in a 5% CO2 incubator. After 24 hours, the original medium was aspirated and replaced with DMEM starvation medium (containing 5% lipoprotein deficient serum (LPDS), 2 µM lovastatin, and 10 µM mevalonate). The control group was treated with dimethyl sulfoxide (DMSO), while the compound treatment groups were treated with different concentrations of compounds. The highest concentration of the compound was 3000 nM, with 3-fold dilutions, totaling 5 concentrations. The cells were cultured for 16 hours. Cell lysis was performed, followed by reverse transcription from cells to cDNA, and qPCR was performed to detect the expression of the SREBP target gene Fatty Acid Synthase (FASN) gene (FASN gene forward primer sequence: 5'-[…]-3', reverse primer sequence: 5'-[…]-3'). The IC50 was calculated. The test data for each test compound were analyzed using Prism software (with the DMSO-treated group as the reference to calculate the compound inhibition rate, fitted using the Prism log(inhibitor) vs. responseVariable slope (four-parameter) model, calculation formula: Y = Bottom + (Top - Bottom)/(1 + 10^((LogIC50 - X) × HillSlope))), to obtain the IC50 parameters of the compounds. Table 4: Inhibition results of FASN gene expression by compounds from some examples

SMILES | IC50 (SREBP pathway; Homo sapiens, Huh-7, 16 h) [µM] | IC50 ([1]; Homo sapiens, Huh-7, 16 h) [µM] | other results
COc1nc(F)cc(F)c1[C@@H](O)CCC[C@@H](C)[C@H]1CC[C@H]2[C@H]3[C@H](CC[C@]12C)[C@@]1(C)CC[C@H](O)[C@H](O)[C@@H]1CC3(F)F (single isomer, unassigned) [Compound 255] | 0.107 | 0.2 to 0.5 | 
COc1ncccc1C(O)CCC[C@@H](C)[C@H]1CC[C@H]2C3=C(F)C[C@H]4[C@@H](O)[C@@H](O)CC[C@]4(C)[C@H]3CC[C@]12C (stereo partly shown) [Compound 83] | 0.092 | 0.2 to 0.5 | 
C[C@H](CCCC(O)c1nnnn1C)[C@H]1CC[C@H]2[C@H]3[C@H](CC[C@]12C)[C@@]1(C)CC[C@H](O)C[C@@H]1CC3(F)F (stereo partly drawn) [Compound 373, (1R,3aS,3bR,5aR,7S,9aS,9bS,11aR)-4,4-difluoro-1-[(2R)-6-hydroxy-6-(1-methyl-1,2,3,4-tetrazol-5-yl)hexan-2-yl]-9a,11a-dimethylhexadecahydro-1H-cyclopenta[1,2-a]phenanthren-7-ol] | 0.078 | < 0.2 | 
C[C@H](CCCC(O)c1ccc(F)cc1)[C@H]1CC[C@H]2[C@H]3[C@H](CC[C@]12C)[C@@]1(C)CC[C@H](O)[C@H](O)[C@@H]1CC3(F)F (stereo partly drawn) [Compound 100, (1R,3aS,3bS,5aR,6R,7S,9aR,9bS,11aR)-4,4-difluoro-1-[(2R)-6-(4-fluorophenyl)-6-hydroxyhexan-2-yl]-9a,11a-dimethylhexadecahydro-1H-cyclopenta[1,2-a]phenanthrene-6,7-diol] | 0.179 | 0.2 to 0.5 | 
COc1cccc(F)c1C(O)CC[C@@H](C)[C@H]1CC[C@H]2[C@H]3[C@H](CC[C@]12C)[C@@]1(C)CC[C@H](O)[C@H](O)[C@@H]1CC3(F)F (single isomer, unassigned) [Compound 336] | 0.31 | < 0.2 | 
C[C@H](CCCC(O)c1cccc2cnn(C)c12)[C@H]1CC[C@H]2[C@H]3[C@H](CC[C@]12C)[C@@]1(C)CC[C@H](O)[C@H](O)[C@@H]1CC3(F)F (single isomer, unassigned) [Compound 244, (1R,3aS,3bS,5aR,6R,7S,9aR,9bS,11aR)-4,4-difluoro-1-[(2R,6R)-6-hydroxy-6-(1-methylindazol-7-yl)hexan-2-yl]-9a,11a-dimethylhexadecahydro-1H-cyclopenta[1,2-a]phenanthrene-6,7-diol or (1R,3aS,3bS,5aR,6R,7S,9aR,9bS,11aR)-4,4-difluoro-1-[(2R,6S)-6-hydroxy-6-(1-methylindazol-7-yl)hexan-2-yl]-9a,11a-dimethylhexadecahydro-1H-cyclopenta[1,2-a]phenanthrene-6,7-diol] |  | < 0.2 | IC50 (SREBP pathway; 16 hours): 0.06 µM
C[C@H](CCCC(O)c1cccc2ncn(C)c12)[C@H]1CC[C@H]2[C@H]3[C@H](CC[C@]12C)[C@@]1(C)CC[C@H](O)[C@H](O)[C@@H]1CC3(F)F (stereo partly drawn) [Compound 261, (1R,3aS,3bS,5aR,6R,7 S,9aR,9bS,11aR)-4,4-Difluoro-1-[(2R)-6-hydroxy-6-(3-methylbenzo[d]imidazol-4-yl)hexan-2-yl]-9a,11a-dimethylhexadecahyd ro-1H-cyclopenta[1,2-a]phenanthrene-6,7-diol] | 0.001 | < 0.2 | 
COc1ccc(C(O)CCC[C@@H](C)[C@H]2CC[C@H]3[C@H]4[C@H](CC[C@]23C)[C@@]2(C)CC[C@H](O)[C@H](O)[C@@H]2CC4(F)F)c(F)c1 (stereo partly drawn) [Compound 67, (1R,3aS,3bS,5aR,6R,7S,9aR,9bS,11aR)-4,4-difluoro-1-[(2R)-6-(2-fluoro-4-methoxyphenyl)-6-hydroxyhexan-2-yl]-9a,11a-dimethylhexadecahydro-1H-cyclopenta[1,2-a]phenanthrene-6,7-diol] | 0.203 | 0.2 to 0.5 | 
C[C@H](CCC(=O)N(C)c1ccccc1F)[C@H]1CC[C@H]2[C@H]3[C@H](CC[C@]12C)[C@@]1(C)CC[C@H](O)[C@H](O)[C@@H]1CC3(F)F [Compound 95, (4R)-4-[(1R,3aS,3bS,5aR,6R,7S,9aR,9bS,11aR)-4,4-difluoro-6,7-dihydroxy-9a,11a-dimethylhexadecahydro-1H-cyclopenta[1,2-a]phenanthren-1-yl]-N-(2-fluorophenyl)-N-methylpentanamide] | 0.08 | < 0.2 | 
COc1nc(F)ccc1C(O)CCC[C@@H](C)[C@H]1CC[C@H]2[C@H]3[C@H](CC[C@]12C)[C@@]1(C)CC[C@H](O)C[C@@H]1CC3(F)F (stereo partly drawn) [Compound 301, (1R,3aS,3bR,5aR,7S,9aS,9bS,11aR)-4,4-difluoro-1-[(2R)-6-(6-fluoro-2-methoxypyridin-3-yl)-6-hydroxyhexan-2-yl]-9a,11a-dimethylhexadecahydro-1H-cyclopenta[1,2-a]phenanthren-7-ol] | 0.076 | 0.2 to 0.5 | 
COc1cc(F)nc(F)c1[C@H](O)CCC[C@@H](C)[C@H]1CC[C@H]2[C@H]3[C@H](CC[C@]12C)[C@@]1(C)CC[C@H](O)[C@H](O)[C@@H]1CC3(F)F (single isomer, unassigned) [Compound 262] | 0.017 | < 0.2 | 
COc1cc(F)c([C@H](O)CCC[C@@H](C)[C@H]2CC[C@H]3[C@H]4[C@H](CC[C@]23C)[C@@]2(C)CC[C@H](O)[C@H](O)[C@@H]2CC4(F)F)c(F)c1Br (single isomer, unassigned) [Compound 199] | 0.152 | 0.2 to 0.5 | 
C[C@H](CCCC(O)c1ccc2c(n1)OC(F)(F)O2)[C@H]1CC[C@H]2[C@H]3[C@H](CC[C@]12C)[C@@]1(C)CC[C@H](O)[C@H](O)[C@@H]1CC3(F)F (single isomer, unassigned) [Compound 266] |  |  | IC50 (SREBP pathway; 16 hours): 0.099 µM; IC50 [1]: < 0.2 µM
COc1cccc(F)c1C(O)CCC[C@@H](C)[C@H]1CC[C@H]2[C@H]3[C@H](CC[C@]12C)[C@@]1(C)CC[C@H](O)C[C@@H]1CC3(F)F (stereo partly drawn) [Compound 302, (1R,3aS,3bR,5aR,7S,9aS,9bS,11aR)-4,4-difluoro-1-[(2R)-6-(2-fluoro-6-methoxyphenyl)-6-hydroxyhexan-2-yl]-9a,11a-dimethylhexadecahydro-1H-cyclopenta[1,2-a]phenanthren-7-ol] | 0.085 | < 0.2 | 
C[C@H](CCCC(O)c1ccccc1F)[C@H]1CC[C@H]2C3=C(F)CC4C[C@@H](O)CC[C@]4(C)[C@H]3CC[C@]12C (stereo partly drawn) [Compound 75, (1R,3aR,7S,9aS,9bR,11aR)-4-fluoro-1-[(2R)-6-(2-fluorophenyl)-6-hydroxyhexan-2-yl]-9a,11a-dimethyl-2,3,3a,5,5a,6,7,8,9,9a,9b,10,11,11a-tetradecahydro-1H-cyclopenta[1,2-a]phenanthren-7-ol] | 0.37 | < 0.2 | 
C[C@H](CCCC(O)c1c(F)cc(F)cc1F)[C@H]1CC[C@H]2[C@H]3[C@H](CC[C@]12C)[C@@]1(C)CC[C@H](O)[C@H](O)[C@@H]1CC3(F)F (stereo partly drawn) [Compound 69, (1R,3aS,3bS,5aR,6R,7S,9aR,9bS,11aR)-4,4-difluoro-1-[(2R)-6-hydroxy-6-(2,4,6-trifluorophenyl)hexan-2-yl]-9a,11a-dimethylhexadecahydro-1H-cyclopenta[1,2-a]phenanthrene-6,7-diol] | 0.086 | < 0.2 | 
COc1nc(F)ccc1[C@H](O)CCC[C@@H](C)[C@H]1CC[C@H]2[C@H]3[C@H](CC[C@]12C)[C@@]1(C)CC[C@H](O)C(=O)[C@@H]1CC3(F)F (single isomer, unassigned) [Compound 260] | 0.03 | < 0.2 | 
C[C@H](CCCC(O)c1ccc(F)nc1OC1CC1)[C@H]1CC[C@H]2[C@H]3[C@H](CC[C@]12C)[C@@]1(C)CC[C@H](O)C[C@@H]1CC3(F)F (stereo partly shown) [Compound 335] |  |  | IC50 (SREBP pathway; Homo sapiens, 16 hours): 0.045 µM; IC50 ([1]; Homo sapiens): < 0.2 µM
C[C@H](CCC[C@@H](O)c1ccccn1)[C@H]1CC[C@H]2[C@H]3[C@H](CC[C@]12C)[C@@]1(C)CC[C@H](O)[C@H](O)[C@@H]1CC3(F)F [Compound 92, (1R,3aS,3bS,5aR,6R,7S,9aR,9bS,11aR)-4,4-difluoro-1-[(2R,6R)-6-hydroxy-6-(pyridin-2-yl)hexan-2-yl]-9a,11a-dimethylhexadecahydro-1H-cyclopenta[1,2-a]phenanthrene-6,7-diol] | 0.371 | < 0.2 | 
C[C@H](CCCC(O)c1cccc(OC(F)(F)F)c1)[C@H]1CC[C@H]2[C@H]3[C@H](CC[C@]12C)[C@@]1(C)CC[C@H](O)[C@H](O)[C@@H]1CC3(F)F (single isomer, unassigned) [Compound 191, (1R,3aS,3bS,5aR,6R,7S,9aR,9bS,11aR)-4,4-difluoro-1-[(2R,6R)-6-hydroxy-6-{3-[(trifluoromethyl)oxy]phenyl}hexan-2-yl]-9a,11a-dimethylhexadecahydro-1H-cyclopenta[1,2-a]phenanthrene-6,7-diol or (1R,3aS,3bS,5aR,6R,7S,9aR,9bS,11aR)-4,4-difluoro-1-[(2R,6S)-6-hydroxy-6-(2-methoxypyridin-3-yl)hexan-2-yl]-9a,11a-dimethylhexadecahydro-1H-cyclopenta[1,2-a]phenanthrene-6,7-diol] |  | 0.2 to 0.5 | IC50 (SREBP pathway; 16 hours): 0.246 µM
